Results taken from US20250353891A1 (MEDIMMUNE LIMITED, priority 2022, published 2025).
Starred links: 1 amine or outer side, 2 acyl side, 3 side chain; linkers in the order of their positions; H or OH if unused. Non-standard residues stand in square brackets, D forms with d. Residues, ends and D or L forms follow the SMILES beside them. Groups on a side chain read outwards from the residue. *: point of attachment. C20 diacid = O=C(O)CCCCCCCCCCCCCCCCCCC(=O)*; C18 diacid = O=C(O)CCCCCCCCCCCCCCCCC(=O)*; γGlu = O=C(O)[C@H](CCC(=O)[*:2])N[*:1]; αMeF = C[C@](N)(Cc1ccccc1)C(=O)O; AEEA = NCCOCCOCC(=O)O; Aib = CC(C)(N)C(=O)O

Assays:
[1] = molecular target: human GLP-1 receptor (hGLP-1R) (Homo sapiens, UniProt P43220); assay: cAMP production (HTRF) in CHO cells expressing hGLP-1R; format: cell-based; parameters: expressed in transfected cells; conditions: for EC50: Table 6, peptides modified at position 17, cAMP in CHO hGLP-1R cells, geometric mean, read-out: hGLP-1R EC50; for % Relative Potency Ratio: % GLP-1R activity relative to GLP-1 / % GlucR activity relative to glucagon
Sequence of human GLP-1 receptor (hGLP-1R) (P43220 24-463): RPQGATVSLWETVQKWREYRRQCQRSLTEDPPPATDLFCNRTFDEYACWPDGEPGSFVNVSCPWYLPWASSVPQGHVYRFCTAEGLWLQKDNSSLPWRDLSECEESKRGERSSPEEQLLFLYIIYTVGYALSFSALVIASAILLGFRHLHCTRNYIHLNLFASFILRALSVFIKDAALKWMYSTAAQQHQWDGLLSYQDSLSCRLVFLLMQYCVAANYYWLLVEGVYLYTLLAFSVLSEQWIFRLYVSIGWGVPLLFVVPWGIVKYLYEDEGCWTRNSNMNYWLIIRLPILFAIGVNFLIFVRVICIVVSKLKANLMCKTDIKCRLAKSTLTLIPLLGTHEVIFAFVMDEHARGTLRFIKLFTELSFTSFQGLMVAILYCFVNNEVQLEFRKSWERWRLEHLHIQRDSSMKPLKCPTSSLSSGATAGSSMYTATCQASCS
Experimental: (§1) Cells were re-suspended in assay buffer at a batch-dependent optimized concentration (typically hGLP-1R cells at 1×10^5 cells/mL, hGCGR cells at 2×10^5 cells/mL).
(§2) Cells were added to the assay plate using a multidrop dispenser and incubated at room temperature for 30 minutes before measuring the cAMP level using a cAMP dynamic 2 homogeneous time resolved Fluorescence (HTRF) kit (Cisbio Bioassays #62AM4PEJ) following the two-step protocol as per manufacturer's recommendations. In brief, anti-cAMP cryptate (donor fluorophore) and cAMP-d2 (acceptor fluorophore) were made up separately by diluting each 1 in 20 in conjugate and lysis buffer provided in the kit. Anti-CAMP cryptate was added to all wells of the assay plate, followed by cAMP-d2 added to all wells except non-specific binding (NSB) wells (to which conjugate and lysis buffer was added).
(§3) Data was transformed to % Delta F as described in the manufacturer's guidelines and analyzed by 4-parameter logistic fit to determine EC50 values.

[2] = molecular target: human glucagon receptor (hGCGR) (Homo sapiens, UniProt P47871); assay: cAMP production (HTRF) in CHO cells expressing hGCGR; format: cell-based; parameters: expressed in transfected cells; conditions: Table 6, peptides modified at position 17; cAMP in CHO hGCGR cells; geometric mean; read-out: hGluc-R EC50
Sequence of human glucagon receptor (hGCGR) (P47871 26-477): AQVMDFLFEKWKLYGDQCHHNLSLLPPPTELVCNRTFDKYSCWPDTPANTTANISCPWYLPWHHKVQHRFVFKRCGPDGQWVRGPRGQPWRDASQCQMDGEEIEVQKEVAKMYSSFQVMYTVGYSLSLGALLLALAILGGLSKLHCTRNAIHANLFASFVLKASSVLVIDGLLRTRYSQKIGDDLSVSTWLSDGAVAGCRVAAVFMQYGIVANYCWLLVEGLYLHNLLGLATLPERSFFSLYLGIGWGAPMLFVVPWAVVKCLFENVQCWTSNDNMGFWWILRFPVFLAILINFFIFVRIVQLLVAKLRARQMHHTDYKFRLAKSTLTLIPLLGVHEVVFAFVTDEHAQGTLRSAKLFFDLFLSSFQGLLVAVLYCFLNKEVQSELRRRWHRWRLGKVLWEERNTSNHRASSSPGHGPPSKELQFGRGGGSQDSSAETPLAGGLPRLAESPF
Experimental: as §1, §2, §3

| Compound | EC50 [1] | EC50 [2] | % Relative Potency Ratio ([1]; Table 6) | % Relative Potency Ratio [1] |
| --- | --- | --- | --- | --- |
| CC[C@H](C)[C@H](NC(=O)C(C)(C)NC(=O)[C@H](CCC(N)=O)NC(=O)[C@@H](NC(=O)[C@](C)(Cc1ccccc1)NC(=O)[C@H](CC(=O)O)NC(=O)[C@H](CCC(N)=O)NC(=O)[C@H](C)NC(=O)[C@H](C)NC(=O)[C@H](CCCCNC(=O)COCCOCCNC(=O)COCCOCCNC(=O)CC[C@H](NC(=O)CCCCCCCCCCCCCCCCC(=O)O)C(=O)O)NC(=O)[C@H](CO)NC(=O)[C@H](CC(=O)O)NC(=O)[C@H](CC(C)C)NC(=O)C(C)(C)NC(=O)[C@H](CCCCN)NC(=O)[C@H](CO)NC(=O)[C@@H](NC(=O)[C@H](CC(=O)O)NC(=O)[C@H](CO)NC(=O)[C@@H](NC(=O)[C@](C)(Cc1ccccc1)NC(=O)[C@H](CO)NC(=O)CNC(=O)[C@H](CCC(N)=O)NC(=O)[C@H](CO)NC(=O)[C@@H](N)Cc1c[nH]cn1)[C@@H](C)O)C(C)C)C(C)C)C(=O)N[C@@H](C)C(=O)N[C@@H](CC(N)=O)C(N)=O [Peptide 1] (H-HSQGS[αMeF]TSDVSK[Aib]LDSK([AEEA-AEEA-γGlu-C18 diacid])AAQD[αMeF]VQ[Aib]IAN-NH2; N-terminus assumed) | 3.2 nM | > 27.1 nM | – | – |
| CC[C@H](C)[C@H](NC(=O)C(C)(C)NC(=O)[C@H](CCC(N)=O)NC(=O)[C@@H](NC(=O)[C@](C)(Cc1ccccc1)NC(=O)[C@H](CC(=O)O)NC(=O)[C@H](CCC(N)=O)NC(=O)[C@H](C)NC(=O)[C@H](C)NC(=O)[C@H](CCCCNC(=O)COCCOCCNC(=O)COCCOCCNC(=O)CC[C@H](NC(=O)CC[C@H](NC(=O)CCCCCCCCCCCCCCCCC(=O)O)C(=O)O)C(=O)O)NC(=O)[C@H](CO)NC(=O)[C@H](CC(=O)O)NC(=O)[C@H](CC(C)C)NC(=O)[C@](C)(Cc1ccccc1)NC(=O)[C@H](CCCCN)NC(=O)[C@H](CO)NC(=O)[C@@H](NC(=O)[C@H](CC(=O)O)NC(=O)[C@H](CO)NC(=O)[C@@H](NC(=O)[C@](C)(Cc1ccccc1)NC(=O)[C@H](CO)NC(=O)CNC(=O)[C@H](CCC(N)=O)NC(=O)C(C)(C)NC(=O)[C@@H](N)Cc1c[nH]cn1)[C@@H](C)O)C(C)C)C(C)C)C(=O)N[C@@H](C)C(=O)N[C@@H](CC(N)=O)C(N)=O [Peptide 5] (H-H[Aib]QGS[αMeF]TSDVSK[αMeF]LDSK([AEEA-AEEA-γGlu-γGlu-C18 diacid])AAQD[αMeF]VQ[Aib]IAN-NH2; N-terminus assumed) | 0.283 nM | 7.14 nM | 49.9 | – |
| CC(C)C[C@H](NC(=O)[C@H](Cc1c[nH]c2ccccc12)NC(=O)[C@H](CCC(N)=O)NC(=O)[C@@H](NC(=O)[C@H](Cc1ccccc1)NC(=O)[C@H](CC(=O)O)NC(=O)[C@H](CCC(N)=O)NC(=O)[C@H](C)NC(=O)[C@H](CCCNC(=N)N)NC(=O)[C@H](CCCCNC(=O)COCCOCCNC(=O)COCCOCCNC(=O)CC[C@H](NC(=O)CC[C@H](NC(=O)CCCCCCCCCCCCCCCCC(=O)O)C(=O)O)C(=O)O)NC(=O)[C@H](CO)NC(=O)[C@H](CC(=O)O)NC(=O)[C@H](CC(C)C)NC(=O)[C@](C)(Cc1ccccc1)NC(=O)[C@H](CCCCN)NC(=O)[C@H](CO)NC(=O)[C@@H](NC(=O)[C@H](CC(=O)O)NC(=O)[C@H](CO)NC(=O)[C@@H](NC(=O)[C@H](Cc1ccccc1)NC(=O)[C@@H](NC(=O)CNC(=O)[C@H](CCC(N)=O)NC(=O)C(C)(C)NC(=O)[C@@H](N)Cc1c[nH]cn1)[C@@H](C)O)[C@@H](C)O)C(C)C)C(C)C)C(=O)N[C@@H](CC(C)C)C(=O)NC(C)(C)C(=O)N[C@H](C(N)=O)[C@@H](C)O [Peptide 463] (H-H[Aib]QGTFTSDVSK[αMeF]LDSK([AEEA-AEEA-γGlu-γGlu-C18 diacid])RAQDFVQWLL[Aib]T-NH2; N-terminus assumed) | 0.274 nM | – | – | – |
| H(Aib)HGS(αMePhe)TSDK(O20C-O2OC-γE-γE-C20diacid)10SK(αMePhe)LDSRAAQD(αMePhe)VQ(Aib)IANT-amide [Peptide 391] | – | – | – | 49.1 |

More lines, main results first:

| EC50 [1] | EC50 [2] | % Relative Potency Ratio ([1]; Table 6) | Compound | % Relative Potency Ratio [1] |
| --- | --- | --- | --- | --- |
| 1.28 nM | 4.19 nM | 6.5 | CC[C@H](C)[C@H](NC(=O)[C@H](Cc1c[nH]c2ccccc12)NC(=O)[C@H](CCC(N)=O)NC(=O)[C@@H](NC(=O)[C@](C)(Cc1ccccc1)NC(=O)[C@H](CC(=O)O)NC(=O)[C@H](CCC(N)=O)NC(=O)[C@H](C)NC(=O)[C@H](C)NC(=O)[C@H](CCCCNC(=O)COCCOCCNC(=O)COCCOCCNC(=O)CC[C@H](NC(=O)CCCCCCCCCCCCCCCCCCC(=O)O)C(=O)O)NC(=O)[C@H](CO)NC(=O)[C@H](CC(=O)O)NC(=O)[C@H](CC(C)C)NC(=O)[C@](C)(Cc1ccccc1)NC(=O)[C@H](CCCCN)NC(=O)[C@H](CO)NC(=O)[C@@H](NC(=O)[C@H](CC(=O)O)NC(=O)[C@H](CO)NC(=O)[C@@H](NC(=O)[C@](C)(Cc1ccccc1)NC(=O)[C@H](CO)NC(=O)CNC(=O)[C@H](CCC(N)=O)NC(=O)[C@H](CO)NC(=O)[C@@H](N)Cc1c[nH]cn1)[C@@H](C)O)C(C)C)C(C)C)C(=O)N[C@@H](C)C(=O)N[C@@H](CC(N)=O)C(=O)N[C@H](C(N)=O)[C@@H](C)O [Peptide 2] (H-HSQGS[αMeF]TSDVSK[αMeF]LDSK([AEEA-AEEA-γGlu-C20 diacid])AAQD[αMeF]VQWIANT-NH2; N-terminus assumed) | – |
| 0.069 nM | 0.149 nM | 4.3 | CC[C@H](C)[C@H](NC(=O)[C@H](Cc1c[nH]c2ccccc12)NC(=O)[C@H](CCC(N)=O)NC(=O)[C@@H](NC(=O)[C@H](Cc1ccccc1)NC(=O)[C@H](CC(=O)O)NC(=O)[C@H](CCC(N)=O)NC(=O)[C@H](C)NC(=O)[C@H](C)NC(=O)[C@H](CCCCNC(=O)CC[C@H](NC(=O)CCCCCCCCCCCCCCCCC(=O)O)C(=O)O)NC(=O)[C@H](CO)NC(=O)[C@H](CC(=O)O)NC(=O)[C@H](CC(C)C)NC(=O)[C@](C)(Cc1ccccc1)NC(=O)[C@H](CCCCN)NC(=O)[C@H](CO)NC(=O)[C@@H](NC(=O)[C@H](CC(=O)O)NC(=O)[C@H](CO)NC(=O)[C@@H](NC(=O)[C@](C)(Cc1ccccc1)NC(=O)[C@H](CO)NC(=O)CNC(=O)[C@H](CCC(N)=O)NC(=O)[C@H](CO)NC(=O)[C@@H](N)Cc1c[nH]cn1)[C@@H](C)O)C(C)C)C(C)C)C(=O)N[C@@H](C)C(=O)N[C@@H](CC(N)=O)C(=O)N[C@H](C(N)=O)[C@@H](C)O [Peptide 3] (H-HSQGS[αMeF]TSDVSK[αMeF]LDSK([γGlu-C18 diacid])AAQDFVQWIANT-NH2; N-terminus assumed) | – |
| 0.24 nM | 1.17 nM | 9.6 | CC[C@H](C)[C@H](NC(=O)[C@H](Cc1c[nH]c2ccccc12)NC(=O)[C@H](CCC(N)=O)NC(=O)[C@@H](NC(=O)[C@H](Cc1ccccc1)NC(=O)[C@H](CC(=O)O)NC(=O)[C@H](CCC(N)=O)NC(=O)[C@H](C)NC(=O)[C@H](C)NC(=O)[C@H](CCCCNC(=O)COCCOCCNC(=O)COCCOCCNC(=O)CC[C@H](NC(=O)CCCCCCCCCCCCCCCCC(=O)O)C(=O)O)NC(=O)[C@H](CO)NC(=O)[C@H](CC(=O)O)NC(=O)[C@H](CC(C)C)NC(=O)[C@](C)(Cc1ccccc1)NC(=O)[C@H](CCCCN)NC(=O)[C@H](CO)NC(=O)[C@@H](NC(=O)[C@H](CC(=O)O)NC(=O)[C@H](CO)NC(=O)[C@@H](NC(=O)[C@](C)(Cc1ccccc1)NC(=O)[C@H](CO)NC(=O)CNC(=O)[C@H](CCC(N)=O)NC(=O)[C@H](CO)NC(=O)[C@@H](N)Cc1c[nH]cn1)[C@@H](C)O)C(C)C)C(C)C)C(=O)N[C@@H](C)C(=O)N[C@@H](CC(N)=O)C(=O)N[C@H](C(N)=O)[C@@H](C)O [Peptide 4] (H-HSQGS[αMeF]TSDVSK[αMeF]LDSK([AEEA-AEEA-γGlu-C18 diacid])AAQDFVQWIANT-NH2) | – |
| 0.568 nM | 0.516 nM | 1.8 | CC[C@H](C)[C@H](NC(=O)[C@H](Cc1c[nH]c2ccccc12)NC(=O)[C@H](CCC(=O)O)NC(=O)[C@@H](NC(=O)[C@](C)(Cc1ccccc1)NC(=O)[C@H](CC(=O)O)NC(=O)[C@H](CCC(N)=O)NC(=O)[C@H](C)NC(=O)[C@H](C)NC(=O)[C@H](CCCCNC(=O)COCCOCCNC(=O)COCCOCCNC(=O)CC[C@H](NC(=O)CCCCCCCCCCCCCCCCC(=O)O)C(=O)O)NC(=O)[C@H](CO)NC(=O)[C@H](CC(=O)O)NC(=O)[C@H](CC(C)C)NC(=O)[C@](C)(Cc1ccccc1)NC(=O)[C@H](CCCCN)NC(=O)[C@H](CO)NC(=O)[C@@H](NC(=O)[C@H](CC(=O)O)NC(=O)[C@H](CO)NC(=O)[C@@H](NC(=O)[C@](C)(Cc1ccccc1)NC(=O)[C@H](CO)NC(=O)CNC(=O)[C@H](Cc1c[nH]cn1)NC(=O)C(C)(C)NC(=O)[C@@H](N)Cc1c[nH]cn1)[C@@H](C)O)C(C)C)C(C)C)C(=O)N[C@@H](C)C(=O)N[C@@H](CC(N)=O)C(N)=O [Peptide 6] (H-H[Aib]HGS[αMeF]TSDVSK[αMeF]LDSK([AEEA-AEEA-γGlu-C18 diacid])AAQD[αMeF]VEWIAN-NH2; N-terminus assumed) | – |
